Drawing on US20250154546A1, “USE OF 3'-OXYMETHYLENE ALKYL DISULFIDE PROTECTED NUCLEOTIDES FOR ENZYMATIC DNA AND RNA SYNTHESIS” (Miltenyi Biotec B.V. & Co. KG, priority 2022, published 2025), this text covers reduction of half-life for one compound.

Some results are limits rather than exact numbers.

A short description of the test: Cleave kinetics of 3′-O-capped nucleotide in cleave mix, monitored by UPLC. Format: physicochemical. The settings on record: 10 mM Mg2+ in the cleave mix versus none; 20 mM DMPS, pH 9.5. The method, then:
A 3′-O-capped nucleotide was treated with a cleave mix DMPS/THPP and the concentration of the 3′-capped nucleotide was monitored by UPLC with a UV detector at a fixed time interval.
In [A]=−kt+In[A]0 and t1/2=In2/k with [A]: reactant concentration; k: reaction rate coefficient
Nucleotide: MeSSdATP, 4.7 mM in 1× TE buffer;
12.8 μL of nucleotide was added to 287 μL of cleave mix in a 1.5 mL of UPLC sample vial. The resulting mixture was analyzed by UPLC right away and every 10 min afterwards automatically for up to 120 min. The area of the starting nucleotide peak was measured at each time point and the value was used directly for the calculation. From the rate of peak area reduction or disappearance of the intermediate the rate constant and the half-life of the intermediate calculated as discussed earlier.

With `CSSCO[C@H]1C[C@H](n2cnc3c(N)ncnc32)O[C@@H]1COP(=O)(O)OP(=O)(O)OP(=O)(O)O` [MeSSdATP, 3′-O—(MeSSCH2)-dATP], the reduction of half-life is given as not above 30%.
